Test results: patent publication US10988477B2 (Merck Patent GmbH, priority 2018, dated 2021)

Key:
GCN2 kinase = GCN2 kinase (Homo sapiens, UniProt Q9P2K8); experiment: GCN2 enzyme inhibition assay (Transcreener ADP2 fluorescence polarization); type: biochemical; settings: Enzyme activity for compounds of Formula IV; Ki(app), 280 μM ATP, 25° C.
In short: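 Human GCN2 (4 nM) preincubated 10 min with compound (0–8 μM) and 200 μM (RS)7 peptide in Tris-HCl pH 7.5, NaCl, MgCl2, DTT. Reaction started with 280 μM ATP, run 1 h at 25 °C. ADP detected by Transcreener fluorescence polarization. IC50 and Ki(app) fitted by tight-binding algorithm.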

[1] = biological target: intracellular GCN2 (phosphorylation of the GCN2 substrate eIF2α) (Homo sapiens, UniProt Q9P2K8); experiment: GCN2 cellular inhibition assay (AlphaScreen SureFire P-eIF2α Ser51, borrelidin-treated U2OS cells); type: cell-based; settings: compounds of Formula IV; biomarker assay, phosphorylated eIF2α Ser51 in borrelidin-treated U2OS cells
Chain of intracellular GCN2 (phosphorylation of the GCN2 substrate eIF2α) (Q9P2K8 whole entry): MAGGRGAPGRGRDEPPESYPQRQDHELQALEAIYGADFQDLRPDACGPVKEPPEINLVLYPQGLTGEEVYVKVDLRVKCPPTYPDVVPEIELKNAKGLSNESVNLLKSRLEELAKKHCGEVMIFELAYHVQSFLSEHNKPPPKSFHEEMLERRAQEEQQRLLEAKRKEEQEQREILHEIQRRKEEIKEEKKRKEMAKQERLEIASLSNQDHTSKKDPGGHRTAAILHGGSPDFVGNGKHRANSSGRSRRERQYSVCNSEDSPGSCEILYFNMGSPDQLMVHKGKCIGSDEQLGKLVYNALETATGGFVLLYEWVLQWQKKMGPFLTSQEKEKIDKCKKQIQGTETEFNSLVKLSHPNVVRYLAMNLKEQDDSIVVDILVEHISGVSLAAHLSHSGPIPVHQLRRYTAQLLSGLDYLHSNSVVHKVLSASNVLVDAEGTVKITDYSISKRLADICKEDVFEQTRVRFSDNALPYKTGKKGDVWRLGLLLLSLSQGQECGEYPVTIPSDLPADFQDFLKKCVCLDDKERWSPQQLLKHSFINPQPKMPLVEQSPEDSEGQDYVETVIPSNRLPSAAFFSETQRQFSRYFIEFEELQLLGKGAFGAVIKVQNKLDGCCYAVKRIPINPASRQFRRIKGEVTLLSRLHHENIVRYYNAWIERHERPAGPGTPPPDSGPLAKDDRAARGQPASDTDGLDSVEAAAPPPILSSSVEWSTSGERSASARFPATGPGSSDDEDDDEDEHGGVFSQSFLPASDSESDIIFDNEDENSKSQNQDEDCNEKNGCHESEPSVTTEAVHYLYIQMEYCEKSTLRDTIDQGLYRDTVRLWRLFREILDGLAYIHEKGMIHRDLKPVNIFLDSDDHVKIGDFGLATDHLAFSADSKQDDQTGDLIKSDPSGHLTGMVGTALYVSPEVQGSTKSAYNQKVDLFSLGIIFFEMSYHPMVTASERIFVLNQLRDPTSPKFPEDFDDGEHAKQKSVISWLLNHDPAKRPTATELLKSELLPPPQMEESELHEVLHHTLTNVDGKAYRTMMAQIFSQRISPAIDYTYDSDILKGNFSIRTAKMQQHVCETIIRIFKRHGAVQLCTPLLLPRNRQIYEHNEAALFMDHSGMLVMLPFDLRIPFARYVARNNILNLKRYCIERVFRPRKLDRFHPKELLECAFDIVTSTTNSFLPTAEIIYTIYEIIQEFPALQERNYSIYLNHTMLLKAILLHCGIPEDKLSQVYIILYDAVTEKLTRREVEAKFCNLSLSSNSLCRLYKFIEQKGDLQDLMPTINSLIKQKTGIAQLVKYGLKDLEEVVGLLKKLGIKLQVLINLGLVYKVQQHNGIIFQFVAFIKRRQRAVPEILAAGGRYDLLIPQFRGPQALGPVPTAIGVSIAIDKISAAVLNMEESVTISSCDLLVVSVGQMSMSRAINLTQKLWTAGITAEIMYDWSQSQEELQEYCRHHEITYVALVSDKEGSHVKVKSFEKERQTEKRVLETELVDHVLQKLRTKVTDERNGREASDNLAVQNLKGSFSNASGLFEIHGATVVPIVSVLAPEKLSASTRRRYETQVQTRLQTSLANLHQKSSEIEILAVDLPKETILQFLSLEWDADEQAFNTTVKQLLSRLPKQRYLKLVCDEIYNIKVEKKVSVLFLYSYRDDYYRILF
In short: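 Phospho-eIF2α (Ser51) in lysates was quantified by AlphaScreen SureFire after a 1 h, 37 °C treatment of U2OS cells with 10 μM borrelidin and compound at 4-fold dilutions starting from 40 μM final. Inhibition expressed in percent against wells stimulated by borrelidin alone.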

Chain of GCN2 kinase (Q9P2K8 whole entry): as above

| Compound | Ki (GCN2 kinase) [nM] | IC50 [1] [nM] |
| --- | --- | --- |
| FC(F)(F)c1cn2c(-c3nccc(N4CCC(Cc5cn[nH]c5)C4)n3)cnc2cn1 (centres unmarked) [IV-635, 3-(4-(3-((1H-Pyrazol-4-yl)methyl)pyrrolidin-1-yl)pyrimidin-2-yl)-6-(trifluoromethyl)imidazo[1,2-a]pyrazine] | 10 to 100 | 500 to 5000 |
| CC1CN(c2cc(N3CCC3)nc(-c3cnc4cnc(C(F)(F)F)cn34)n2)C(C)C(c2cn[nH]c2)N1 (centres unmarked) [IV-637, 3-(4-(Azetidin-1-yl)-6-(2,5-dimethyl-3-(1H-pyrazol-4-yl)piperazin-1-yl)pyrimidin-2-yl)-6-(trifluoromethyl)imidazo[1,2-a]pyrazine] | < 10 | 500 to 5000 |
| CC1CN(c2cc(OCCO)nc(-c3cnc4cnc(C(F)(F)F)cn34)n2)C(C)C(c2cn[nH]c2)N1 (centres unmarked) [IV-640, 2-((6-(2,5-Dimethyl-3-(1H-pyrazol-4-yl)piperazin-1-yl)-2-(6-(trifluoromethyl)imidazo[1,2-a]pyrazin-3-yl)pyrimidin-4-yl)oxy)ethan-1-ol] | < 10 | 500 to 5000 |
| CC1CN(c2cc(N=S(C)(C)=O)nc(-c3cnc4cnc(C(F)(F)F)cn34)n2)C(C)C(c2cn[nH]c2)N1 (centres unmarked) [IV-648, ((6-(2,5-Dimethyl-3-(1H-pyrazol-4-yl)piperazin-1-yl)-2-(6-(trifluoromethyl)imidazo[1,2-a]pyrazin-3-yl)pyrimidin-4-yl)imino)dimethyl-λ^6-sulfanone] | < 10 | 500 to 5000 |
| FC(F)(F)c1cn2c(-c3nccc(N4CCCC(c5nccs5)C4)n3)cnc2cn1 (centres unmarked) [IV-675, 2-(1-(2-(6-(Trifluoromethyl)imidazo[1,2-a]pyrazin-3-yl)pyrimidin-4-yl)piperidin-3-yl)thiazole] | 10 to 100 | > 5000 |
| FC(F)(F)c1cn2c(-c3nccc(N4CCC(c5cn[nH]c5)CC4)n3)cnc2cn1 [IV-680, 3-(4-(4-(1H-Pyrazol-4-yl)piperidin-1-yl)pyrimidin-2-yl)-6-(trifluoromethyl)imidazo[1,2-a]pyrazine] | 10 to 100 | 500 to 5000 |
| FC(F)(F)c1cn2c(-c3nccc(N4CCCC(c5ncco5)C4)n3)cnc2cn1 (centres unmarked) [IV-686, 2-(1-(2-(6-(Trifluoromethyl)imidazo[1,2-a]pyrazin-3-yl)pyrimidin-4-yl)piperidin-3-yl)oxazole] | 100 to 1000 | 500 to 5000 |
| FC(F)(F)c1cn2c(-c3nccc(N4CCCC(c5cncs5)C4)n3)cnc2cn1 (centres unmarked) [IV-691, 5-(1-(2-(6-(Trifluoromethyl)imidazo[1,2-a]pyrazin-3-yl)pyrimidin-4-yl)piperidin-3-yl)thiazole] | 10 to 100 | 500 to 5000 |
| CC1C(c2cn[nH]c2)CC(P(C)(C)=O)CN1c1ccnc(-c2cnc3cnc(C(F)(F)F)cn23)n1 (centres unmarked) [IV-693, Dimethyl(6-methyl-5-(1H-pyrazol-4-yl)-1-(2-(6-(trifluoromethyl)imidazo[1,2-a]pyrazin-3-yl)pyrimidin-4-yl)piperidin-3-yl)phosphine oxide] | 10 to 100 | > 5000 |
| CS(=O)(=O)NC[C@@H]1CN(c2nc(-c3cnc4cnc(C(F)F)cn34)ns2)CCO1 [IV-703, (S)—N-((4-(3-(6-(difluoromethyl)imidazo[1,2-a]pyrazin-3-yl)-1,2,4-thiadiazol-5-yl)morpholin-2-yl)methyl)methanesulfonamide] | 100 to 1000 | > 5000 |
| FC(F)(F)c1cn2c(-c3nsc(N4CCOC(c5cn[nH]c5)C4)n3)cnc2cn1 (centres unmarked) [IV-704, 2-(1H-pyrazol-4-yl)-4-(3-(6-(trifluoromethyl)imidazo[1,2-a]pyrazin-3-yl)-1,2,4-thiadiazol-5-yl)morpholine] | 100 to 1000 | > 5000 |
| Cc1noc([C@@H]2CN(c3ccnc(-c4cnc5cnc(C(F)(F)F)cn45)n3)C[C@H](C)O2)n1 [IV-712] | 100 to 1000 | > 5000 |
| Cc1nnc([C@@H]2CN(c3ccnc(-c4cnc5cnc(C(F)(F)F)cn45)n3)C[C@H](C)O2)o1 [IV-716] | 100 to 1000 | > 5000 |

The next lines start with the values.

| Ki (GCN2 kinase) [nM] | IC50 [1] [nM] | Compound |
| --- | --- | --- |
| < 10 | 500 to 5000 | Cc1cc(N2CC(C)NC(c3cn[nH]c3)C2C)nc(-c2cnc3cnc(C(F)(F)F)cn23)n1 (centres unmarked) [IV-627, 3-(4-(2,5-Dimethyl-3-(1H-pyrazol-4-yl)piperazin-1-yl)-6-methylpyrimidin-2-yl)-6-(trifluoromethyl)imidazo[1,2-a]pyrazine] |
| 10 to 100 | > 5000 | CC1(c2n[nH]cc2C2CCN(c3ccnc(-c4cnc5cnc(C(F)(F)F)cn45)n3)C2)CC1 (centres unmarked) [IV-630, 3-(4-(3-(3-(1-Methylcyclopropyl)-1H-pyrazol-4-yl)pyrrolidin-1-yl)pyrimidin-2-yl)-6-(trifluoromethyl)imidazo[1,2-a]pyrazine] |
| 10 to 100 | 500 to 5000 | CC1CCC(C(N)=O)CN1c1ccnc(-c2cnc3cnc(C(F)(F)F)cn23)n1 (centres unmarked) [IV-631, 6-Methyl-1-(2-(6-(trifluoromethyl)imidazo[1,2-a]pyrazin-3-yl)pyrimidin-4-yl)piperidine-3-carboxamide] |
| 10 to 100 | 500 to 5000 | Cc1cc(N2CCC(c3cn[nH]c3)C2)nc(-c2cnc3cnc(C(F)(F)F)cn23)n1 (centres unmarked) [IV-668, 3-(4-(3-(1H-Pyrazol-4-yl)pyrrolidin-1-yl)-6-methylpyrimidin-2-yl)-6-(trifluoromethyl)imidazo[1,2-a]pyrazine] |
| 100 to 1000 | 500 to 5000 | CC1NCC(C)N(c2ccnc(-c3cnc4cnc(C(F)(F)F)cn34)n2)C1c1ccc(=O)[nH]c1 (centres unmarked) [IV-676, 5-(3,6-Dimethyl-1-(2-(6-(trifluoromethyl)imidazo[1,2-a]pyrazin-3-yl)pyrimidin-4-yl)piperazin-2-yl)pyridin-2(1H)-one] |
| 10 to 100 | 500 to 5000 | CC1CN(c2ccnc(-c3cnc4cnc(C(F)(F)F)cn34)n2)C(C)C(c2ccc(=O)[nH]c2)N1 (centres unmarked) [IV-677, 5-(3,6-Dimethyl-4-(2-(6-(trifluoromethyl)imidazo[1,2-a]pyrazin-3-yl)pyrimidin-4-yl)piperazin-2-yl)pyridin-2(1H)-one] |
| 10 to 100 | 500 to 5000 | FC(F)(F)c1cn2c(-c3nccc(N4CCCC(c5cnco5)C4)n3)cnc2cn1 (centres unmarked) [IV-678, 5-(1-(2-(6-(Trifluoromethyl)imidazo[1,2-a]pyrazin-3-yl)pyrimidin-4-yl)piperidin-3-yl)oxazole] |
| < 10 | 500 to 5000 | FC(F)(F)c1cn2c(-c3nccc(N4CC(c5cn[nH]c5)N5CCC[C@H]5C4)n3)cnc2cn1 (stereo partly drawn) [IV-679, 3-(4-((8aS)-4-(1H-Pyrazol-4-yl)hexahydropyrrolo[1,2-a]pyrazin-2(1H)-yl)pyrimidin-2-yl)-6-(trifluoromethyl)imidazo[1,2-a]pyrazine] |
| 100 to 1000 | 500 to 5000 | CC1CN(c2ccnc(-c3cnc4cnc(C(F)(F)F)cn34)n2)C(C)C(c2cnn(C)c2)N1 (centres unmarked) [IV-687, 3-(4-(2,5-Dimethyl-3-(1-methyl-1H-pyrazol-4-yl)piperazin-1-yl)pyrimidin-2-yl)-6-(trifluoromethyl)imidazo[1,2-a]pyrazine] |
| 10 to 100 | 500 to 5000 | CC1C(c2cn[nH]c2)CCN1c1ccnc(-c2cnc3cnc(C(F)(F)F)cn23)n1 (centres unmarked) [IV-688, 3-(4-(2-Methyl-3-(1H-pyrazol-4-yl)pyrrolidin-1-yl)pyrimidin-2-yl)-6-(trifluoromethyl)imidazo[1,2-a]pyrazine] |
| 10 to 100 | > 5000 | CC1C(c2cn[nH]c2)CCN1c1ccnc(-c2cnc3cnc(C(F)(F)F)cn23)n1 (centres unmarked) [IV-689, 3-(4-(2-Methyl-3-(1H-pyrazol-4-yl)pyrrolidin-1-yl)pyrimidin-2-yl)-6-(trifluoromethyl)imidazo[1,2-a]pyrazine] |
| < 10 | 500 to 5000 | CC1CN(c2cc(F)cc(-c3cnc4cnc(C(F)(F)F)cn34)n2)C(C)C(c2cn[nH]c2)N1 (centres unmarked) [IV-690, 3-(6-(2,5-Dimethyl-3-(1H-pyrazol-4-yl)piperazin-1-yl)-4-fluoropyridin-2-yl)-6-(trifluoromethyl)imidazo[1,2-a]pyrazine] |
| 100 to 1000 | > 5000 | FC(F)(F)c1cn2c(-c3nccc(N4CCC5(CC4)CNC5)n3)cnc2cn1 [IV-692, 3-(4-(2,7-Diazaspiro[3.5]nonan-7-yl)pyrimidin-2-yl)-6-(trifluoromethyl)imidazo[1,2-a]pyrazine] |
| 100 to 1000 | > 5000 | FC(F)(F)c1cn2c(-c3nccc(N4CCCC(c5cocn5)C4)n3)cnc2cn1 (centres unmarked) [IV-694, 4-(1-(2-(6-(Trifluoromethyl)imidazo[1,2-a]pyrazin-3-yl)pyrimidin-4-yl)piperidin-3-yl)oxazole] |
| 10 to 100 | > 5000 | FC(F)(F)c1cn2c(-c3nccc(N4CCC(Oc5cn[nH]c5)C4)n3)cnc2cn1 (centres unmarked) [IV-695, 3-(4-(3-((1H-Pyrazol-4-yl)oxy)pyrrolidin-1-yl)pyrimidin-2-yl)-6-(trifluoromethyl)imidazo[1,2-a]pyrazine] |
| 100 to 1000 | > 5000 | FC(F)(F)c1cn2c(-c3nccc(N4CCCC(C5CNC5)C4)n3)cnc2cn1 (centres unmarked) [IV-696, 3-(4-(3-(Azetidin-3-yl)piperidin-1-yl)pyrimidin-2-yl)-6-(trifluoromethyl)imidazo[1,2-a]pyrazine] |
| 100 to 1000 | > 5000 | FC(F)c1cn2c(-c3nsc(N4CCOC(c5cn[nH]c5)C4)n3)cnc2cn1 (centres unmarked) [IV-702, 4-(3-(6-(difluoromethyl)imidazo[1,2-a]pyrazin-3-yl)-1,2,4-thiadiazol-5-yl)-2-(1H-pyrazol-4-yl)morpholine] |
| 100 to 1000 | > 5000 | CS(=O)(=O)NC[C@@H]1CN(c2nc(-c3cnc4cnc(C(F)(F)F)cn34)ns2)CCO1 [IV-705, (S)—N-((4-(3-(6-(trifluoromethyl)imidazo[1,2-a]pyrazin-3-yl)-1,2,4-thiadiazol-5-yl)morpholin-2-yl)methyl)methanesulfonamide] |
